Measurements published in US20110288154A1, “RNA Interference Mediated Inhibition of Epithelial Sodium Channel (ENaC) Gene Expression Using Short Interfering Nucleic Acid (siNA)” (MERCK & CO., INC., priority 2008, published 2011).
[invAb] = inverted abasic unit; d = 2'-deoxy (DNA); m = 2'-O-methyl; r = 2'-OH (RNA); f = 2'-fluoro

Tested on: ENaCα mRNA
Assay: Screening of ENaCα siNAs in human A549 cells (quantitative RT-PCR)
Format: cell-based
Set-up: Percent Reduction of the ENaCα mRNA relative to a non-targeting control siNA (NTC): concentration or dose not given beside the values
Conditions: for Avg ENaCα Expression / Mean (level of ENaCα expression normalized to the level of GAPDH) / Percent Reduction of the ENaCα mRNA relative to a non-targeting control siNA (NTC) / Avg GAPDH Expression: human A549 cells, n = 3; for Avg ENaCα Expression: 25 nM siNA with Lipofectamine 2000, harvested 24 hours post-transfection; for Mean (level of ENaCα expression normalized to the level of GAPDH) / Percent Reduction of the ENaCα mRNA relative to a non-targeting control siNA (NTC) / Avg GAPDH Expression: 24 hours post-transfection; for Avg GAPDH Expression: housekeeping gene used for normalisation
Procedure: siNA constructs (Table 1b) may be tested for efficacy in reducing ENaC RNA expression in, for example, A549 human lung carcinoma cells. A549 (human; ATCC cat# CCL-185) cells were cultured at 37° C. in the presence of 5% CO2 and grown in Ham's F12K medium with 2 mM L-glutamine adjusted to contain 1.5 g/L sodium bicarbonate and supplemented with fetal bovine serum at a final concentration of 10% and 100 U/mL penicillin. The A549 cells were plated approximately 24 hours before transfection in 96-well plates at 7,500 cells/well, 100 μl/well. After 24 hours complexes containing siNA and Lipofectamine 2000 (Invitrogen) were created as follows: a solution of Lipofectamine 2000 in OPTI-MEM was prepared containing Lipofectamine 2000 at a final concentration of 14 μg/ml. In parallel, solutions of the siNAs were prepared in OPTI-MEM at a final concentration of 150 nM. After both solutions were incubated at 20° C. for 20 minutes an equal volume of the siNA solutions and the Lipofectamine 2000 solution were added together for each of the siNAs. The resultant solution has the siNAs at a final concentration of 75 nM and Lipofectamine 2000 at a final concentration of 7 μg/ml. This solution was incubated at 20° C. for 20 minutes. After incubation 50 μl of the solution were added to each of the wells (in triplicate). The final concentration of siNA in each well was 25 nM and the final concentration of Lipofectamine 2000 in each well was 2.33 μg/ml. […] Dose response curves were determined in a similar manner with each concentration being done in triplicate and maintaining a constant amount of Lipofectamine 2000 in each transfection.
RNA was extracted from 96-well plates using the Invitek Invisorb RNA Cell HTS 96 Kit/C (Cat# 70619000) with a slightly modified protocol. The details of the protocol for isolating RNA from each plate are described as follows:
1) Aspirate media with rake 2) Add 150 ul/well Lysis buffer 3) Place on plate shaker for 1 minute 4) Place DNA binding plate on top of 0.5 ml collection plate 5) Pipette 190 ul up and down twice and add to DNA binding plate 6) Cover plate 7) Centrifuge plates 4 minutes at 4000 RPM 8) Discard DNA binding plate 9) Place the RNA binding plate on top of 2 ml collection plate 10) Add 150 ul/well of Binding Buffer R to 0.5 ml collection plate 11) Move contents of 0.5 ml collection plate to RNA binding plate 12) Let incubate for 1 minute 13) Centrifuge plates 4 minutes at 4000 RPM 14) Add 600 ul/well of Wash Buffer R1 to RNA binding plate 15) Centrifuge plates 4 minutes at 4000 RPM 16) Dump wash buffer from 2 ml collection plate 17) Add 400 ul/well of Wash Buffer R2 to RNA binding plate 18) Centrifuge plates 4 minutes at 4000 RPM 19) Add 400 ul/well of Wash Buffer R2 to RNA binding plate 20) Centrifuge plates 10 minutes at 4000 RPM 21) Dump wash buffer from 2 ml collection plate 22) Centrifuge plates 3 minutes at 4000 RPM 23) Discard 2 ml collection plate and place RNA binding plate on to microtiter plate 24) Add 100 ul/well of elution buffer to RNA binding plate 25) Incubate for 2 minutes 26) Seal plate 27) Centrifuge plates 3 minutes at 4000 RPM 28) Discard RNA binding plate 29) Cover microtiter plate for storage in −80 freezer
A series of probes and primers were used to detect the various mRNA transcripts of the genes of ENaCa and GAPDH in mouse, rat, and human cell lines. The assays were performed on an ABI 7500 instrument, according to the manufacturer's instructions. Within each experiment, the baseline was set in the exponential phase of the amplification curve, and based on the intersection point of the baselines with the amplification curve, a Ct value was assigned by the instrument. This Ct value was then assigned a QTY value based on the Standard Curve. The standard curve in the various experiments herein used 1 ng to 300 ng of RNA extracted from the same cell line used for the experimental transfections. […]

| Substance | Avg ENaCα Expression | Mean (level of ENaCα expression normalized to the level of GAPDH) | Percent Reduction of the ENaCα mRNA relative to a non-targeting control siNA (NTC) | Avg GAPDH Expression | IC50 (human cell line, dose response, read-out: Human IC50 (potency of ENaCα mRNA knockdown)) | Human % KD (efficacy of ENaCα mRNA knockdown) (human cell line, summary) |
| --- | --- | --- | --- | --- | --- | --- |
| B AAccuGGGcAGccAGuGGA TTB / UCCAcuGGcuGcccAGGuuUU (sense AACCUGGGCAGCCAGUGGATT; antisense UCCACUGGCUGCCCAGGUUUU; siRNA; sense: sugars from the 5' end ddfffdddfddffddfddrdd, [invAb] at 5' end, 3' end, backbone not given here; antisense: sugars from the 5' end rrrmffmmffmfffmmmffmm, backbone not given here) [Site 1747] | 75.36 | 0.58 | 12.3% | 130.33 |  |  |
| B GGGcAGccAGuGGAGccuG TTB / CAGGcuccAcuGGcuGcccUU (sense GGGCAGCCAGUGGAGCCUGTT; antisense CAGGCUCCACUGGCUGCCCUU; siRNA; sense: DNA at AGT, 2'-fluoro at CU, [invAb] at 5' end, 3' end, backbone not given here; antisense: sugars from the 5' end rrrmffffmffmmffmfffmm, backbone not given here) [Site 1752] | 82.06 | 0.60 | 9.4% | 137.51 |  |  |
| B cccuGcuGuccAcAGuGAc TTB / GUCAcuGuGGAcAGcAGGGUU (sense CCCUGCUGUCCACAGUGACTT; antisense GUCACUGUGGACAGCAGGGUU; siRNA; sense: DNA at AGT, 2'-fluoro at CU, [invAb] at 5' end, 3' end, backbone not given here; antisense: sugars from the 5' end rrrmffmfmmmfmmfmmmmmm, backbone not given here) [Site 1121] | 72.95 | 1.65 | −6.0% | 46.89 |  |  |
| B ccGcAuGAAGAcGGccuuc TTB / GAAGGccGucuucAuGcGGUU (chain 1 CCGCAUGAAGACGGCCUUCTT; chain 2 GAAGGCCGUCUUCAUGCGGUU; siRNA; chain 1: DNA at AGT, 2'-fluoro at CU, [invAb] at 5' end, 3' end, backbone not given here; chain 2: sugars from the 5' end rrrmmffmfffffmfmfmmmm, backbone not given here) [Site 339] | 69.05 | 1.13 | 27.1% | 62.02 |  |  |
| B uuAuGGAuGAuGGuGGcuu TTB / AAGccAccAucAuccAuAAUU (sense UUAUGGAUGAUGGUGGCUUTT; antisense AAGCCACCAUCAUCCAUAAUU; siRNA; B caps on sense ends, letter-case modifications not given here, further chemistry not given here) [Site 1181] | 36.75 | 0.55 | 64.7% | 70.22 | 0.4 nM | 65-80% |
| B ccAuccGccuGGuGuGcuc TTB / GAGcAcAccAGGcGGAuGGUU (chain 1 CCAUCCGCCUGGUGUGCUCTT; chain 2 GAGCACACCAGGCGGAUGGUU; siRNA; chain 1: DNA at AGT, 2'-fluoro at CU, [invAb] at 5' end, 3' end, backbone not given here; chain 2: sugars from the 5' end rrrfmfmffmmmfmmmfmmmm, backbone not given here) [Site 311] | 65.43 | 1.29 | 17.0% | 53.29 |  |  |
| B cAGAGcAGAAuGAcuucAu TTB / AUGAAGucAuucuGcucuGUU (sense CAGAGCAGAAUGACUUCAUTT; antisense AUGAAGUCAUUCUGCUCUGUU; siRNA; sense: DNA at AGT, 2'-fluoro at CU, [invAb] at 5' end, 3' end, backbone not given here; antisense: sugars from the 5' end rrrmmmffmffffmffffmmm, backbone not given here) [Site 1100] | 66.11 | 1.14 | 26.8% | 64.16 |  |  |
| B uGGcuGuGccuAcAucuuc TTB / GAAGAuGuAGGcAcAGccAUU (sense UGGCUGUGCCUACAUCUUCTT; antisense GAAGAUGUAGGCACAGCCAUU; siRNA; sense: DNA at AGT, 2'-fluoro at CU, [invAb] at 5' end, 3' end, backbone not given here; antisense: sugars from the 5' end rrrmmfmfmmmfmfmmffmmm, backbone not given here) [Site 1386] | 72.05 | 0.64 | 2.8% | 112.63 |  |  |
| B AccuGGGcAGccAGuGGAG TTB / CUCcAcuGGcuGcccAGGuUU (sense ACCUGGGCAGCCAGUGGAGTT; antisense CUCCACUGGCUGCCCAGGUUU; siRNA; sense: DNA at AGT, 2'-fluoro at CU, [invAb] at 5' end, 3' end, backbone not given here; antisense: sugars from the 5' end rrrfmffmmffmfffmmmfmm, backbone not given here) [Site 1748] | 80.25 | 0.61 | 7.2% | 131.14 |  |  |
| B cGcAuGAAGAcGGccuucu TTB / AGAAGGccGucuucAuGcGUU (chain 1 CGCAUGAAGACGGCCUUCUTT; chain 2 AGAAGGCCGUCUUCAUGCGUU; siRNA; chain 1: DNA at AGT, 2'-fluoro at CU, [invAb] at 5' end, 3' end, backbone not given here; chain 2: sugars from the 5' end rrrmmmffmfffffmfmfmmm, backbone not given here) [Site 340] | 84.94 | 1.40 | 9.9% | 63.09 |  |  |
